Experimental data published in PubChem BioAssay AID330 (DTP/NCI, 2004).
Several values for one entry are separate records, joined by “and”; a condition that tells them apart may be missing. Equal entries are not always repeated. Toxic doses and inconclusive results are not listed. The calls were made as follows: active = survival T/C of 150% or more; inactive = T/C below 125% in these data. Numbered stars: 1 amine (or outer) side, 2 acyl side, 3 side chain; on linkers, the order of the positions; unused ones are H or OH. Peptide text beside a SMILES is read from it. ξ: configuration not given here. ξγGlu = O=C(O)C(CCC(=O)[*:2])N[*:1]

Test system: P388 leukemia ip, CD2F1 mice, survival T/C
Assay: NCI In Vivo Anticancer Drug Screen. Data for tumor model P388 Leukemia (intraperitoneal) in CD2F1 (CDF1) mice
Settings: endpoint: median survival time, higher = longer survival
In short: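 Mice carrying the transplanted tumor received test compound or vehicle. Survival was recorded in each group, and the value is the treated-group measurement divided by that of the vehicle-treated control group.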

[1] = dose: 60.0 mg/kg/injection, schedule: Q01DX005 (ip), vehicle: Klucel (hydroxypropylcellulose) (HPC)
[2] = dose: 120.0 mg/kg/injection, schedule: Q01DX005 (ip), vehicle: Klucel (hydroxypropylcellulose) (HPC)
[3] = dose: 50.0 mg/kg/injection, schedule: Q01DX005 (ip), vehicle: saline with Tween-80
[4] = dose: 100.0 mg/kg/injection, schedule: Q01DX005 (ip), vehicle: saline with Tween-80
[5] = dose: 200.0 mg/kg/injection, schedule: Q01DX005 (ip), vehicle: saline with Tween-80
[6] = dose: 100.0 mg/kg/injection, schedule: Q04DX003 (ip), vehicle: saline with Tween-80
[7] = dose: 200.0 mg/kg/injection, schedule: Q04DX003 (ip), vehicle: saline with Tween-80
[8] = dose: 400.0 mg/kg/injection, schedule: Q04DX003 (ip), vehicle: saline with Tween-80
[9] = dose: 50.0 mg/kg/injection, schedule: Q01DX009 (ip), vehicle: saline
[10] = dose: 100.0 mg/kg/injection, schedule: Q01DX009 (ip), vehicle: saline
[11] = dose: 200.0 mg/kg/injection, schedule: Q01DX009 (ip), vehicle: saline
[12] = dose: 60.0 mg/kg/injection, schedule: Q01DX005 (ip), vehicle: saline with Tween-80
[13] = dose: 120.0 mg/kg/injection, schedule: Q01DX005 (ip), vehicle: saline with Tween-80
[14] = dose: 240.0 mg/kg/injection, schedule: Q01DX005 (ip), vehicle: saline with Tween-80
[15] = dose: 50.0 mg/kg/injection, schedule: Q01DX009 (ip), vehicle: Klucel (hydroxypropylcellulose) (HPC)
[16] = dose: 100.0 mg/kg/injection, schedule: Q01DX009 (ip), vehicle: Klucel (hydroxypropylcellulose) (HPC)
[17] = dose: 200.0 mg/kg/injection, schedule: Q01DX009 (ip), vehicle: Klucel (hydroxypropylcellulose) (HPC)

Measured: T/C

CC1(C)CN=C(NN=C(/C=C/c2ccc(C(F)(F)F)cc2)/C=C/c2ccc(C(F)(F)F)cc2)NC1
inactive: [1] 98 % of control | [2] 98 % of control

COc1ccc(CCNC(=O)c2ccc(CSc3ccc(Cl)cc3)o2)cc1OC
inactive: [3] 105 % of control | [4] 100 % of control | [5] 93 % of control

Cc1c(C(=O)NCCN(C)C)n(C)c(=O)c2ccccc12
inactive: dose: 60.0 mg/kg/injection, schedule: Q01DX005 (ip), vehicle: saline 98 % of control | dose: 120.0 mg/kg/injection, schedule: Q01DX005 (ip), vehicle: saline 93 % of control | dose: 240.0 mg/kg/injection, schedule: Q01DX005 (ip), vehicle: saline 94 % of control

CNC(=O)Nc1cc2ccccc2o1
inactive: [6] 110 % of control | [7] 100 % of control | [8] 105 % of control

O=S(=O)(CS(=O)(=O)c1ccc(Cl)c(Cl)c1)c1ccc(Cl)c(Cl)c1
inactive: dose: 60.0 mg/kg/injection, schedule: Q01DX005 (ip), vehicle: Klucel + Tween-80 94 % of control | dose: 120.0 mg/kg/injection, schedule: Q01DX005 (ip), vehicle: Klucel + Tween-80 102 % of control

Cc1noc(NS(=O)(=O)c2ccc(N=c3c4ccccc4n(Cc4ccccc4)c4ccccc34)cc2)c1C
inactive: [3] 96 % of control | [4] 94 % of control | [5] 87 % of control

CCOC(=O)C1CC(C)CC1=O (centres undefined)
inactive: [9] 96 % of control | [10] 98 % of control | [11] 102 % of control

CC=C(/C(=C/C)c1ccc(O)cc1)c1ccc(O)cc1
inactive: dose: 66.0 mg/kg/injection, schedule: Q01DX009 (ip), vehicle: saline with Tween-80 120 % of control | [6] 100 % of control | [7] 100 % of control | [8] 90 % of control

[Cl][Pd][Cl].[NH-]C(C(=O)OCc1ccccc1)c1ccccc1.[NH-]C(C(=O)OCc1ccccc1)c1ccccc1 (centres undefined)
inactive: dose: 6.25 mg/kg/injection, schedule: Q04DX003 (ip), vehicle: saline 100 % of control | dose: 12.5 mg/kg/injection, schedule: Q04DX003 (ip), vehicle: saline 100 % of control | dose: 25.0 mg/kg/injection, schedule: Q04DX003 (ip), vehicle: saline 97 % of control | dose: 100.0 mg/kg/injection, schedule: Q04DX003 (ip), vehicle: saline 108 % of control

COc1cc(CC2c3cc(OC)c(OC)cc3CCN2C)c(Oc2cc3c(cc2OC)-c2c(O)c(OC)cc4c2C(C3)N(C)CC4)cc1OC (centres undefined)
inactive: dose: 12.5 mg/kg/injection, schedule: Q04DX003 (ip), vehicle: saline with Tween-80 101 % of control | dose: 25.0 mg/kg/injection, schedule: Q04DX003 (ip), vehicle: saline with Tween-80 101 % of control | dose: 50.0 mg/kg/injection, schedule: Q04DX003 (ip), vehicle: saline with Tween-80 100 % of control | [7] 89 % of control | [8] 97 % of control

COc1ccc(S(=O)(=O)N/N=C/c2cc([N+](=O)[O-])cc(I)c2O)cc1OC
inactive: [12] 97 % of control | [13] 94 % of control | [14] 91 % of control

COc1ccc2c(N)cccc2c1
inactive: [9] 92 % of control | [10] 88 % of control | [11] 95 % of control

CNC(=O)n1cc(Cl)ccc1=O
inactive: [9] 100 % of control and 108 % of control | [10] 100 % of control and 107 % of control | [11] 119 % of control

O=C(Cc1nc2cc(Cl)c(Cl)cc2nc1CC(=O)c1cccnc1)c1cccnc1
inactive: [12] 110 % of control | [13] 103 % of control | [14] 100 % of control

CC1(CCl)CC(=O)N1C(N)=O (centres undefined)
inactive: [9] 96 % of control | [10] 104 % of control | [11] 105 % of control

c1ccc2sc(SCCCCCCCCCCCCSc3nc4ccccc4s3)nc2c1
inactive: dose: 50.0 mg/kg/injection, schedule: Q01DX005 (ip), vehicle: Klucel + Tween-80 98 % of control | dose: 100.0 mg/kg/injection, schedule: Q01DX005 (ip), vehicle: Klucel + Tween-80 94 % of control | dose: 200.0 mg/kg/injection, schedule: Q01DX005 (ip), vehicle: Klucel + Tween-80 96 % of control

CCCCCCC(Nc1ncnc(Cl)c1N)C(C)O (centres undefined)
inactive: dose: 12.5 mg/kg/injection, schedule: Q01DX009 (ip), vehicle: saline with Tween-80 97 % of control | dose: 25.0 mg/kg/injection, schedule: Q01DX009 (ip), vehicle: saline with Tween-80 100 % of control

COCc1ccc2c(c1)C(O)NC(=O)O2 (centres undefined)
inactive: [3] 102 % of control | [4] 107 % of control | [5] 109 % of control | dose: 400.0 mg/kg/injection, schedule: Q01DX005 (ip), vehicle: saline with Tween-80 117 % of control

CNC(=O)OCc1c(COC(=O)NC)c(-c2ccccc2)n(-c2ccc(Cl)c(Cl)c2)c1C
inactive: dose: 12.5 mg/kg/injection, schedule: Q01DX009 (ip), vehicle: distilled water + Tween-80 117 % of control | dose: 400.0 mg/kg/injection, schedule: Q01DX009 (ip), vehicle: distilled water + Tween-80 87 % of control
active: dose: 25.0 mg/kg/injection, schedule: Q01DX009 (ip), vehicle: distilled water + Tween-80 160 % of control | dose: 100.0 mg/kg/injection, schedule: Q01DX009 (ip), vehicle: distilled water + Tween-80 155 % of control and 165 % of control | dose: 200.0 mg/kg/injection, schedule: Q01DX009 (ip), vehicle: distilled water + Tween-80 155 % of control and 184 % of control

Cc1[nH]nc2c1NC(=O)OCC2
inactive: [3] 101 % of control | [4] 101 % of control | [5] 101 % of control

Cc1ccc(NC(=O)c2cc3ccccc3cc2O)c(C)c1.Cc1ccc(NC(=O)c2cc3ccccc3cc2[O-])c(C)c1.[Ni+2]
inactive: dose: 1.56 mg/kg/injection, schedule: Q01DX009 (ip), vehicle: saline with Tween-80 109 % of control | dose: 3.12 mg/kg/injection, schedule: Q01DX009 (ip), vehicle: saline with Tween-80 89 % of control | dose: 6.12 mg/kg/injection, schedule: Q01DX009 (ip), vehicle: saline with Tween-80 97 % of control | dose: 6.25 mg/kg/injection, schedule: Q01DX009 (ip), vehicle: saline 108 % of control

COc1nc(Nc2ccccc2OC)nc(OC)n1
inactive: [15] 101 % of control | [16] 99 % of control | [17] 100 % of control

CCOC(=O)c1ccc(NC(=NC(C)(C)C)C(C)C)cc1
inactive: dose: 50.0 mg/kg/injection, schedule: Q01DX009 (ip), vehicle: saline with Tween-80 96 % of control | dose: 100.0 mg/kg/injection, schedule: Q01DX009 (ip), vehicle: saline with Tween-80 101 % of control | dose: 200.0 mg/kg/injection, schedule: Q01DX009 (ip), vehicle: saline with Tween-80 91 % of control

Cc1ccc(-c2nc(N)sc2N=Nc2ccc(Cl)cc2Cl)cc1
inactive: [1] 96 % of control | [2] 96 % of control | dose: 240.0 mg/kg/injection, schedule: Q01DX005 (ip), vehicle: Klucel (hydroxypropylcellulose) (HPC) 97 % of control

CCOC(=O)c1cnc(Sc2c([N+](=O)[O-])ncn2C)nc1N
inactive: dose: 12.5 mg/kg/injection, schedule: Q01DX009 (ip), vehicle: Klucel (hydroxypropylcellulose) (HPC) 89 % of control | dose: 25.0 mg/kg/injection, schedule: Q01DX009 (ip), vehicle: Klucel (hydroxypropylcellulose) (HPC) 92 % of control | [15] 86 % of control and 91 % of control

Cc1c(NC(=S)Nc2ccccc2C(F)(F)F)c(=O)n(-c2ccccc2)n1C
inactive: [15] 92 % of control | [16] 96 % of control | [17] 100 % of control

CCCCCCCCCCCCCC#CC(=O)OC
inactive: [9] 104 % of control | [10] 106 % of control | [11] 106 % of control

Cn1c(=O)c2c(-c3ccc(Cl)cc3)onc2n(C)c1=O
inactive: [15] 96 % of control | [16] 100 % of control

O=C(c1ccccc1[N+](=O)[O-])C1OC1c1ccccc1 (centres undefined)
inactive: dose: 50.0 mg/kg/injection, schedule: Q01DX005 (ip), vehicle: Klucel (hydroxypropylcellulose) (HPC) 102 % of control | dose: 100.0 mg/kg/injection, schedule: Q01DX005 (ip), vehicle: Klucel (hydroxypropylcellulose) (HPC) 99 % of control | dose: 200.0 mg/kg/injection, schedule: Q01DX005 (ip), vehicle: Klucel (hydroxypropylcellulose) (HPC) 96 % of control

NC(CCC(=O)NCC(=O)NCC(=O)O)C(=O)O (stereo not drawn) (ξγGlu-Gly-Gly-OH)
inactive: dose: 50.0 mg/kg/injection, schedule: Q01DX005 (ip), vehicle: saline 100 % of control | dose: 100.0 mg/kg/injection, schedule: Q01DX005 (ip), vehicle: saline 97 % of control | dose: 200.0 mg/kg/injection, schedule: Q01DX005 (ip), vehicle: saline 102 % of control
